Assay [1] concerns P. falciparum 3D7 strain parasites. Description: microbe, parasite or virus in culture. The settings on record: Plasmodium falciparum, 3D7, 72 h, read-out: Pf3D7 IC50.
Assay [2] has the same test system. The settings on record: parasite-killing activity reported earlier, cited from earlier work; for pIC50: read-out: Pf3D7 IC50.
The test system of assay [3] is HepG2 cells. The settings on record: read-out: HepG2 IC50; Tables ST1 and ST2.
For assay [4], the target named is T1, G9a (Homo sapiens, UniProt Q96KQ7).
T1 sequence (Q96KQ7 1-1210): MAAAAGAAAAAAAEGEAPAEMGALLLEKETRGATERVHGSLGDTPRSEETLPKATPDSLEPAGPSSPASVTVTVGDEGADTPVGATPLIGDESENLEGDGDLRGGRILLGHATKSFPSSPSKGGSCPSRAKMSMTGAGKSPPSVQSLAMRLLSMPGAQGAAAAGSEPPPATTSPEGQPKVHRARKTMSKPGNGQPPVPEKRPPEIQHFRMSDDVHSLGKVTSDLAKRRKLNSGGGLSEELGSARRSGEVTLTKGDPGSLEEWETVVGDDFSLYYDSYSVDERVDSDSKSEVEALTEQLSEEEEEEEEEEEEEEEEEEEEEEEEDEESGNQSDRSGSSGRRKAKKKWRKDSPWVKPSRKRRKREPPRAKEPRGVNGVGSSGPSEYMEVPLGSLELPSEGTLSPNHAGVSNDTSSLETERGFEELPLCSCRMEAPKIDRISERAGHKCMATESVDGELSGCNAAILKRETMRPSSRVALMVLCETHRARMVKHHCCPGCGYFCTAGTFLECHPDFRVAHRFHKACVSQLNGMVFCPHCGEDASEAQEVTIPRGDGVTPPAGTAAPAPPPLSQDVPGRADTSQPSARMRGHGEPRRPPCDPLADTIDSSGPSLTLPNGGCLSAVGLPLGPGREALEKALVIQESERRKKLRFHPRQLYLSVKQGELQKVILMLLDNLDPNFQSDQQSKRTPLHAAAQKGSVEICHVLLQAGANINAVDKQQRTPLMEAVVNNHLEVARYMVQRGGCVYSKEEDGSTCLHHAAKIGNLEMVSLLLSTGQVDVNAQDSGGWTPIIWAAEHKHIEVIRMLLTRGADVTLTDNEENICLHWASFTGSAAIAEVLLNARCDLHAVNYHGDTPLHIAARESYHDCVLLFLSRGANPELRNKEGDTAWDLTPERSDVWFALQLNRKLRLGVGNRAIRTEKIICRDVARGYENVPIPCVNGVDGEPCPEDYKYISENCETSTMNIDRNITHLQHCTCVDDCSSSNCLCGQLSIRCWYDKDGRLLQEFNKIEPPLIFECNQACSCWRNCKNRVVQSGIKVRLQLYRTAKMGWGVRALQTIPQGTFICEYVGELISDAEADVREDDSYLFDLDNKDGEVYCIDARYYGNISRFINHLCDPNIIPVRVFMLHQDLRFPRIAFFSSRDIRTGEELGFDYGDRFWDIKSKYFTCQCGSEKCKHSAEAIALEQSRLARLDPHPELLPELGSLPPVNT
The settings on record: for pIC50: read-out: G9a IC50.

The subject of assay [5] is H3K4me3 levels in P. falciparum 3D7 parasites. Description: Parasite histone methylation analysis (Western blot), H3K4me3. It is filed as cell-based. The settings on record: 12 h treatment, relative to DMSO control. The protocol:
(§1) Parasites were treated with drugs for 12 h. After treatment, infected red blood cells were collected and lysed with PBS containing 0.15% saponin. Free parasites were lysed by bath sonication in 1% SDS-PBS and analysed by Western Blot. Blots were probed with primary antibodies specific for H3K4me3 (Abcam ab1012 1 : 1000), H3 core (Abcam ab1791, 1 : 3000) and H3K9me3 (Abcam ab8898, 1 : 1000) diluted in TBS-T (50 mM Tris pH 7.5, 150 mM NaCl, 0.05% Tween-20, 5% BSA), followed by anti-mouse HRP (GE NA931V) or anti-rabbit HRP (GE NA934V) secondary antibodies.
On the technique in general: In western blotting, separated proteins are transferred to a membrane and probed.

The next assay concerns PfSET7. Kind of assay: Initial activity assays using PfSET7. It is filed as biochemical, P. falciparum. The settings on record: data not shown.
For assay [6], the system named is synchronised P. falciparum parasites. Description: In vitro stage-dependent antimalarial activity. The settings on record: 10× IC50, three distinct 12 hour periods of the intra-erythrocytic life cycle; re-invasion and out-growth. It is filed as cell-based. The protocol: Stage-specific compound treatment effects were elucidated using highly synchronized parasites in 48-well plates with a starting parasitemia of 0.75% and a hematocrit of 2%. […] After treatment, parasites were washed with warm RPMI 1640 medium and placed back into culture without test compound for analysis of re-invasion after completion of the cell cycle in which treatment occurred. Washed parasites after treatment were also diluted 1 : 16 and allowed to grow without compound for an additional two cell cycles (4 days). Parasitemia after re-invasion or after 4 day growth was quantified on infected cells fixed in 0.025% glutaraldehyde and stained with 2× SYBR Green I (Lonza) in PBS.

In assay [7] the test system is H3K9me3 levels in P. falciparum 3D7 parasites. Kind of assay: Parasite histone methylation analysis (Western blot), H3K9me3. It is filed as cell-based. The settings on record: 12 h treatment, relative to DMSO control. The procedure: as §1
Assay [8] deals with P. falciparum 3D7 strain parasites. The settings on record: P. falciparum 3D7, three-day SYBR Green I assay.
The subject of assay [9] is HepG2 cells. Description: cells. The settings on record: Homo sapiens, HepG2, read-out: anti-HepG2 IC50.
The subject of assay [10] is G9a activity in cells (H3K9me2 levels). The settings on record: reduction of H3K9me2 levels, ICW; cited from earlier work.
Assay [11] deals with T1, G9a. The settings on record: read-out: G9a IC50; CLOT assay; cited from earlier work.
The mark [12] stands for this setting: SPA, 5 nM G9a, H3 1-25 peptide 0.8 μM, 3H-SAM 8 μM.

Molecules are shown by their SMILES. pIC50: −log10 of the molar value. Read-outs that look alike come from different tables or passages of the source.

For orientation: pIC50 means the negative decadic logarithm of the IC50, by convention in mol/L.

Regarding `CCN(CC)CCCC(C)Nc1ccnc2cc(Cl)ccc12` (stereo not shown) [Chloroquine], the pIC50 in [1] was 8.10.

Regarding `COc1cc2nc(N3CCOCC3)nc(NC3CCN(Cc4ccccc4)C3)c2cc1OC` (stereo not shown) [S15], the pIC50 in assay [2] (Tables ST1-ST4, ref 1 (supplement)) is 6.82; in the assay on HepG2 cells [3], 4.82; at G9a [4] (setting [12]) it was under 6.00. Also, the G9a/Pf3D7 at G9a [4] (ratio of G9a IC50 to Pf3D7 IC50) is on record as over 6.6.

On to `COc1cc2nc(N3CCCN(C)CC3)nc(NC3CCN(Cc4ccccc4)CC3)c2cc1OC` [compound 1, reference compound], for which, in [5], the H3K4me3 levels result is “decrease”. Also, the PfSET7 as target entry in the assay with PfSET7 was “PfSET7 not to be the target”. Further, the stage-dependent killing phenotype result in assay [6] is given as “erythrocytic stage-independent killing phenotype”. For the same molecule, the H3K9me3 levels result in assay [7] is given as “decrease”.

`COc1cc2nc(NCCCN(C)C)nc(NC3CCN(Cc4ccccc4)CC3)c2cc1OC` [compound 17]: in assay [8], the “Pf3D7 IC50” value is recorded as “poor potency against Plasmodium”. For the same molecule, at G9a [4] (setting [12]), the “G9a IC50” value is recorded as “good G9a inhibition” and the pIC50 is 6.91.

Consider `COc1cc2nc(N3CCCN(C)CC3)nc(NC3CCN(C)CC3)c2cc1OC` [compound 38], for which, in assay [2] (P. falciparum 3D7), the “Pf3D7 IC50” value was “low Pf3D7 activity” and the pIC50 was under 6.52.

Regarding `COc1cc2nc(N3CCN(C)CC3)nc(NC3CCN(C)CC3)c2cc1OC` [compound 39], in assay [2] (P. falciparum 3D7), the “Pf3D7 IC50” value is “low Pf3D7 activity” and the pIC50 was under 6.52.

Turning to `COc1cc2nc(N3CCCCC3)nc(NC3CCN(C)CC3)c2cc1OC` [compound 40], the pIC50 was under 5.00 in the assay with HepG2 cells [9] and 6.23 on G9a [4] (setting [12]).

In the case of `COc1cc2c(NC3CCN(C)CC3)nc(NCCCN(C)C)nc2cc1OCc1ccccc1` [compound 63], the “Pf3D7 IC50” value in assay [8] is reported as “lost activity against Plasmodium”. Besides, on G9a [4] (setting [12]), the pIC50 is under 6.00.

For the molecule `COc1cc2c(NC3CCN(C)CC3)nc(N3CCCN(C)CC3)nc2cc1OCCCN1CCCCC1` [compound 64], in assay [2] (P. falciparum 3D7), the pIC50 was under 5.70. Besides, in assay [10], the “G9a activity in cells” value was “moderate G9a activity in cells”.

For `COc1cc2c(NC3CCN(C)CC3)nc(N3CCCN(C)CC3)nc2cc1OCCCN1CCCC1` [compound 65], the pIC50 in assay [2] (P. falciparum 3D7) is under 5.70. Besides, the “G9a activity in cells” value in assay [10] is on record as “moderate G9a activity in cells”.

In the case of `COc1cc2c(NC3CCN(C)CC3)nc(N3CCCN(C)CC3)nc2cc1OCCCN(C)C` [compound 66, reference compound], in assay [2] (P. falciparum 3D7), the pIC50 was under 5.70.

With `COc1cc2c(NC3CCN(C)CC3)nc(N3CCCN(C)CC3)nc2cc1OCCN(C)C` [compound 67], the pIC50 in assay [2] (P. falciparum 3D7) was under 5.70.

With `COCCCCOc1cc2nc(N3CCCN(C)CC3)nc(NC3CCN(C)CC3)c2cc1OC` [compound 71], the pIC50 on G9a [11] is under 5.00.

Regarding `COc1cc2cc(N3CCCCC3)nc(NC3CCN(Cc4ccccc4)CC3)c2cc1OC` [compound 87, N-(1-Benzylpiperidin-4-yl)-6,7-dimethoxy-3-(piperidin-1-yl)isoquinolin-1-amine], the negative logarithm of the IC50 (pIC50) on G9a [4] (setting [12]) is under 4.60.

For the molecule `COc1cc2nc(N3CCN(C)CC3)cc(NC3CCN(Cc4ccccc4)CC3)c2cc1OC` [compound 89, N-(1-Benzylpiperidin-4-yl)-6,7-dimethoxy-2-(4-methylpiperazin-1-yl)quinolin-4-amine], the H3K4me3 levels entry in [5] is “decrease”. The stage-dependent killing phenotype entry in assay [6] is recorded as “erythrocytic stage-independent killing phenotype”. Further, in assay [7], the H3K9me3 levels result is recorded as “decrease”. Besides, the pIC50 at G9a [4] (setting [12]) is 7.68.

As for `COc1cc2nc(N3CCC(OC)CC3)cc(NC3CCN(Cc4ccccc4)CC3)c2cc1OC` [compound 90, N-(1-Benzylpiperidin-4-yl)-6,7-dimethoxy-2-(4-methoxypiperidin-1-yl)quinolin-4-amine], the H3K4me3 levels result in [5] is listed as “decrease”. The stage-dependent killing phenotype entry in assay [6] was “erythrocytic stage-independent killing phenotype”. Also, the H3K9me3 levels entry in assay [7] is given as “decrease”. In addition, the pIC50 on G9a [4] (setting [12]) is 6.92.

On to `COc1cc2nc(N3CCN(C)CC3)cc(NC3CCN(C)CC3)c2cc1OC` [compound 91, 6,7-Dimethoxy-2-(4-methylpiperazin-1-yl)-N-(1-methylpiperidin-4-yl)quinolin-4-amine], for which, on G9a [4] (setting [12]), the pIC50 is 7.52.

(Values after PMC5708365, “Histone lysine methyltransferase structure activity relationships that allow for segregation of G9a inhibition and anti-Plasmodium activity” (MedChemComm, 2017).)
